For 4 compounds, IC50 results are on record in patent publication US12678471B2 (priority 2022, dated 2026).

What all share (type): cell-based
Assay [1] concerns D614G S protein pseudotyped lentivirus (spike protein of the SARS-CoV-2 D614G variant). The following applies: read-out: Half inhibition concentration of viral infection (IC50) D614G.
The subject of assay [2] is Delta S protein pseudotyped lentivirus (spike protein of the SARS-CoV-2 Delta variant). The following applies: ACE2-293T cells; virus pretreated with compound 1 hour at 37° C.; 24 hours infection; mean ± SD (n = 3); read-out: Half inhibition concentration of viral infection (IC50) Delta.
Assay [3] concerns Omicron S protein pseudotyped lentivirus (spike protein of the SARS-CoV-2 Omicron variant). As to the kind of experiment: microbe, parasite or virus in culture. The settings on record: read-out: Half inhibition concentration of viral infection (IC50) Omicron.

Like-named read-outs stand apart in the source and are kept apart here.

In the case of Bersavine, the IC50 in assay [1] worked out at 1240 ± 170 nM; in assay [2], 2860 ± 130 nM; in assay [3] it was 1710 ± 340 nM.

Regarding Aromoline, the IC50 in assay [2] came out at 470 ± 80 nM; in assay [3], 860 ± 120 nM.

`COc1cc2c3cc1Oc1c(O)c(OC)cc4c1[C@@H](Cc1ccc(O)c(c1)Oc1ccc(cc1)C[C@@H]3N(C)CC2)N(C)CC4` [Obamegine]: the IC50 in assay [1] worked out at 1400 ± 350 nM; in assay [3] (Lentivirus), 1190 ± 160 nM.

Take `COc1cc2c3cc1Oc1c(OC)c(OC)cc4c1[C@@H](Cc1ccc(O)c(c1)Oc1ccc(cc1)C[C@@H]3N(C)CC2)N(C)CC4` [Berbamine]: the IC50 in assay [3] (Lentivirus) worked out at 2290 ± 290 nM.
